From US20050197406A1, “Method of treatment of lung cancer” (priority 1999, published 2005)
Where a name gives a salt, the structure may show the parent alone.

Key:
[1] = test system: A549 human lung cancer cells; assay: A549 human lung cancer xenograft model, β-lapachone alone or with gemcitabine; format: in vivo; conditions: for toxicity: female, athymic nude (Ncr), mouse, in vivo, ip; for retardation of tumor growth, monotherapy: β-lapachone 60 mg/kg or gemcitabine 120 mg/kg alone, e.g. days 24 and 27
Protocol: Mice receive a total of eight treatments. Mean tumor volume is analyzed; data points in FIG. 4 represent the arithmetic mean +/−SEM of five tumors.

[2] = test system: 60 cancer cell lines; conditions: FDA approved chemotherapeutic agents, publicly available data; cited from earlier work
[3] = test system: 60 cancer cell lines; assay: NCI in vitro screen of 60 cancer cell lines (sulforhodamine B assay); format: cell-based; conditions: Homo sapiens; mean across all cells of NCI60; read-out: LC50 (log 10 molar concentration causing 50% lethality), mean across all cells (converted)
Protocol: The NCI assays are performed under standardized conditions not designed to mimic the conditions of dosing and use the sulforhodamine B assay as the endpoint. […] When compared to many FDA approved chemotherapeutic agents for common cancer types with publicly available data, none of the compared approved drugs exceed the mean of β-lapachone across all cells and only mitoxantrone equals it. FIG. 2.

[4] = test system: A549 human lung cancer cells; format: in vivo; conditions: 60 mg/kg intraperitoneally every three days, 8 treatments
Protocol: The animals are randomized into three groups of seven animals per group. […] Mean tumor volume is then analyzed.

[5] = test system: normal cells; assay: In vitro experiments using cell lines of various tissue origins (toxicity to normal cells); format: cell-based
[6] = ip every three days, eight treatments

In the case of Nc1ccn([C@@H]2O[C@H](CO)[C@@H](O)C2(F)F)c(=O)n1 [gemcitabine, 2′-deoxy-2′,2′-difluorocytidine monohydrochloride (β-isomer), reference compound], the toxicity [1] is reported as “No significant toxicity” and the “retardation of tumor growth, monotherapy” value [1, 6] is reported as “retarded tumor growth to a similar extent”.

For O=C1c2c(O)ccc(O)c2C(=O)c2c(NCCNCCO)ccc(NCCNCCO)c21 [mitoxantrone], the “mean LC50 across all cells compared with that of β-lapachone” value [2] is listed as “equals it”.

In the case of CC1(C)CCC2=C(O1)c1ccccc1C(=O)C2=O [β-lapachone, 3,4-dihydro-2,2-dimethyl-2H-naphtho[1,2-b]pyran-5,6-dione], the CC50 [3] is reported as 8.51 µM, the “reduction of mean tumor volume” value [4] is reported as “approximately 50%” and the toxicity [1] is reported as “No significant toxicity”. For the same compound, the “retardation of tumor growth, monotherapy” value [1, 6] was “retarded tumor growth to a similar extent”, the “retardation of tumor growth, 60 mg/kg compared with 40 mg/kg” value ([1]; β-lapachone in 40% HPBCD, ip every three days, eight treatments) was “more effective at retarding tumor growth” and the “toxicity to normal cells” value [5] was “relatively non-toxic to normal cells”.
